In publication PMC4375101 (Chemistry & biology, 2009):

Molecular target: yeast Hsc70 (Ssa1p) (Saccharomyces cerevisiae, UniProt P10591)
Assay: single-turnover […]ATP ATPase assay with J-domain co-chaperone
Format: biochemical

Sequence of yeast Hsc70 (Ssa1p) (P10591 2-642): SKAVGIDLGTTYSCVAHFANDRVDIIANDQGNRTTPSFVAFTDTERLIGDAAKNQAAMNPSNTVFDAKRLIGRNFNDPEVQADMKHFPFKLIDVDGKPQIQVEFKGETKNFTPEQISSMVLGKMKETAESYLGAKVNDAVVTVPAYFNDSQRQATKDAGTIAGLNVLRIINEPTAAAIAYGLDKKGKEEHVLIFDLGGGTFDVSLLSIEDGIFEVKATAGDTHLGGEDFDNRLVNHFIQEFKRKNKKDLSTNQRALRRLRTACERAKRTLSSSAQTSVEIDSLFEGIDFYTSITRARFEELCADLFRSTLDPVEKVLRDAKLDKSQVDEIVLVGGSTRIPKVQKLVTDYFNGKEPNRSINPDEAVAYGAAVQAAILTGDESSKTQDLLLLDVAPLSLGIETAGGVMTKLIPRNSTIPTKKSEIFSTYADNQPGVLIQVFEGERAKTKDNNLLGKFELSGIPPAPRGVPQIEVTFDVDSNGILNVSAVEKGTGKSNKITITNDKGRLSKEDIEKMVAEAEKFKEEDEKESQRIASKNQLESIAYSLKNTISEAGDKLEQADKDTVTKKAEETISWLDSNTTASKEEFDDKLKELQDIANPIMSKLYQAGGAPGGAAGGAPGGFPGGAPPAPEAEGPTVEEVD
Sequence of yeast Hsc70 (Ssa1p) (P03070 whole entry, further chain): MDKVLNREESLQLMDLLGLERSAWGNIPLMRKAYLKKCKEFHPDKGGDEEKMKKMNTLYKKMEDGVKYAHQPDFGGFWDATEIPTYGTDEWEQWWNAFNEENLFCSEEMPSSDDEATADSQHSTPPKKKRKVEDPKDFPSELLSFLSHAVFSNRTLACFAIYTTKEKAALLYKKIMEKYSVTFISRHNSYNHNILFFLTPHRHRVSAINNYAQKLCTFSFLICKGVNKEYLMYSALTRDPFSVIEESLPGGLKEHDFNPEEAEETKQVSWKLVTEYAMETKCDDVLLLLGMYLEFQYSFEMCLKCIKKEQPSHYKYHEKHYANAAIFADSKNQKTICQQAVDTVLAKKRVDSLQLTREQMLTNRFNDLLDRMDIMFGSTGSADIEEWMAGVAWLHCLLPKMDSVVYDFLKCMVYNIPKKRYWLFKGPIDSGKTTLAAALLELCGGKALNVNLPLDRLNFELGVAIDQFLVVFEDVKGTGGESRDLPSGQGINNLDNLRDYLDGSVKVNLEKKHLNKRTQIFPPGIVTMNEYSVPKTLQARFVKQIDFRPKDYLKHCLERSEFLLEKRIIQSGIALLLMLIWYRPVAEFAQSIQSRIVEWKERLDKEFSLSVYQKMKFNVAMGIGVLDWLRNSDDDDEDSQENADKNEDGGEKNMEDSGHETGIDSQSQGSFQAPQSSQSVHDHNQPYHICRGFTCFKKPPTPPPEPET

## CCCCCCCCCCCCC/C=C/[C@@H](O)[C@H](COC1O[C@H](CO)[C@H](O)[C@H](OS(=O)(=O)O)[C@H]1O)NC(=O)CC12CC3CC(CC(C3)C1)C2 (stereo partly shown) [adaSGC]
  Ki: ~10 µM
